Measurements: patent US9522914B2, “Azole derivative” (TAISHO PHARMACEUTICAL CO., LTD, priority 2011, dated 2016)

Assays:
Human V1b receptor [1] = target: T1, Human V1b receptor (Homo sapiens (Human), UniProt P47901); test: Binding Test for V1b Receptor ([3H]AVP, crude membrane preparation of 293FT cells); settings: inhibition of [3H]AVP binding (0.4 to 1 nmol/L), room temperature, 60 minutes
In short: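 Crude membranes from 293FT cells transiently expressing human V1b, incubated with [3H]AVP (0.4 to 1 nmol/L) and compound (0.01 nmol/L–1 μmol/L final) in Tris pH 7.4 with MgCl2 and 0.1% BSA, 60 min at room temperature. Bound label collected by filtration. Nonspecific binding defined with unlabeled AVP; IC50 from dose-response curve.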

Human V1b receptor [2] = target: T1, Human V1b receptor; test: Measurement of V1b Receptor Antagonistic Activity (AVP-induced Fluo-4 fluorescence in CHO cells, FDSS); type: cell-based; settings: inhibition of the response to AVP 2.5 nmol/L, CHO cells stably expressing human V1b receptor
Protocol: Measurement of V1b Receptor Antagonistic Activity
CHO cells (ATCC) so modified as to express human V1b receptor in a stable manner were cultured in Ham's F-12 medium (containing 10% FBS and 0.5 mg/mL Geneticin). On the day before the test, seeding was conducted at a density of 20,000 cells/well in a 96-well poly-D-lysine coated black plate. On the day of the test, the culture medium was removed, and a loading solution (1×HBSS, 10 mmol/L HEPES, 0.1% bovine serum albumin, 1.25 mmol/L Probenecid, 0.02% Pluronic F-127, 1.5 μmol/L Fluo-4-AM, pH 7.4) was added to each well, followed by incubation in a CO2 incubator for an hour. After the incubation, the loading solution was removed. A test solution (1×HBSS, 10 mmol/L HEPES, 0.1% bovine serum albumin, 1.25 mmol/L Probenecid, pH 7.4) containing any one of test compounds was added to wells, followed by incubation in a CO2 incubator for 30 minutes. The test compound was serially diluted with DMSO so that it would have final concentrations of 0.1 nmol/L to […] at the time of assaying. After the incubation, fluorescence intensity levels were measured and AVP added by means of FDSS (Hamamatsu Photonics K.K.); AVP was added to give a final concentration of 2.5 nmol/L at the time of assaying. […] The fluorescence level in a well to which neither test compound nor AVP was added was defined as 0%, and the fluorescence level in a well to which only AVP was added and no test compound was added was defined as 100%. A dose-response curve was plotted from fluorescence levels after the addition of AVP in the presence of a test compound at various concentrations, and the 50% inhibitory concentration (IC50 value) of the compound was calculated.

T1 sequence (P47901 whole entry): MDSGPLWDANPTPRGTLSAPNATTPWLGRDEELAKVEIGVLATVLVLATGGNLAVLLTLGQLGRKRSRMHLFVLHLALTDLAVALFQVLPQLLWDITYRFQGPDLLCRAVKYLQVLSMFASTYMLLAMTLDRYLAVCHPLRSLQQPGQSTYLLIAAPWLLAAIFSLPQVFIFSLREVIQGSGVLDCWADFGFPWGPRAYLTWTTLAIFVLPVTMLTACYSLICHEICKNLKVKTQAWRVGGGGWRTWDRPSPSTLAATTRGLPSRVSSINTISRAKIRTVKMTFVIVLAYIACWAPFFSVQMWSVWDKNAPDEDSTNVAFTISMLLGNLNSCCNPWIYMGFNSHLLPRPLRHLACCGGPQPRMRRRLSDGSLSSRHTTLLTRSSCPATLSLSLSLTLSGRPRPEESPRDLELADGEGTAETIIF

Row | SMILES | IC50 (Human V1b receptor [1]) [nM] | IC50 (Human V1b receptor [2]) [nM]
1 | CC(C)NC(=O)Cn1nc(-c2ccc(CCN3CCOCC3)cc2)nc1-c1cccc(Cl)c1 [Example B-02, 2-[5-(3-chlorophenyl)-3-{4-[2-(morpholin-4-yl)ethyl]phenyl}-1H-1,2,4-triazol-1-yl]-N-(propan-2-yl)acetamide] | 2.2 | 10
2 | CC(C)NC(=O)Cc1oc(-c2ccc(CCN3CC4(COC4)C3)cc2)nc1-c1cccc(Cl)c1 [Example C-12, 2-[4-(3-chlorophenyl)-2-{4-[2-(2-oxa-6-azaspiro[3.3]hept-6-yl)ethyl]phenyl}-1,3-oxazol-5-yl]-N-(propan-2-yl)acetamide] | 4.3 | 32
3 | CC(C)NC(=O)Cn1cc(-c2ccc(CCN3CCOCC3)cc2)nc1-c1cccc(Cl)c1 [Example A-02, 2-[2-(3-chlorophenyl)-4-{4-[2-(morpholin-4-yl)ethyl]phenyl}-1H-imidazol-1-yl]-N-(propan-2-yl)acetamide] | 3.7 | 3.2
4 | CC(C)(C)NC(=O)Cc1nn(-c2ccc(CCN3C4CCC3COC4)cc2)c(=O)n1-c1cccc(Cl)c1 [Example D-14, N-tert-butyl-2-[4-(3-chlorophenyl)-1-{4-[2-(3-oxa-8-azabicyclo[3.2.1]oct-8-yl)ethyl]phenyl}-5-oxo-4,5-dihydro-1H-1,2,4-triazol-3-yl]acetamide] | 4.7 | 12
5 | COc1cccc(-c2nc(-c3ccc(CCN4CCC(N(C)C)CC4)cc3)nn2CC(=O)NC(C)C)c1 [Example B-26, 2-[3-(4-{2-[4-(dimethylamino)piperidin-1-yl]ethyl}phenyl)-5-(3-methoxyphenyl)-1H-1,2,4-triazol-1-yl]-N-(propan-2-yl)acetamide] | 100 to 1000 | –
6 | COc1cc(-c2nc(-c3ccc(CCN4CC(F)C4)cc3)cn2CC(=O)NC(C)C)ccc1F [Example A-19, 2-[4-{4-[2-(3-fluoroazetidin-1-yl)ethyl]phenyl}-2-(4-fluoro-3-methoxyphenyl)-1H-imidazol-1-yl]-N-(propan-2-yl)acetamide] | 10 to 100 | –
7 | COc1cccc(-c2nc(-c3ccc(CCN4CC5(CCOCC5)C4)cc3)nn2CC(=O)NC(C)C)c1 [Example B-37, 2-[5-(3-methoxyphenyl)-3-{4-[2-(7-oxa-2-azaspiro[3.5]non-2-yl)ethyl]phenyl}-1H-1,2,4-triazol-1-yl]-N-(propan-2-yl)acetamide] | < 10 | –
8 | CC(C)NC(=O)Cc1nn(-c2ccc(CC(C)N3C4CCC3COC4)cc2)c(=O)n1-c1cccc(Cl)c1 [Example D-18, 2-[4-(3-chlorophenyl)-1-{4-[2-(3-oxa-8-azabicyclo[3.2.1]oct-8-yl)propyl]phenyl}-5-oxo-4,5-dihydro-1H-1,2,4-triazol-3-yl]-N-(propan-2-yl)acetamide] | 1.5 | 0.65
9 | CC(C)NC(=O)Cc1nn(-c2ccc(CC(C)N3C4CCC3COC4)cn2)c(=O)n1-c1cccc(Cl)c1 [Example D-34, 2-[4-(3-chlorophenyl)-1-{5-[2-(3-oxa-8-azabicyclo[3.2.1]oct-8-yl)propyl]pyridin-2-yl}-5-oxo-4,5-dihydro-1H-1,2,4-triazol-3-yl]-N-(propan-2-yl)acetamide] | 3.3 | –
10 | COc1cccc(-c2nc(-c3ccc(CCN4CCOCC4)cn3)nn2CC(=O)NC(C)C)c1 [Example B-15, 2-[5-(3-methoxyphenyl)-3-{5-[2-(morpholin-4-yl)ethyl]pyridin-2-yl}-1H-1,2,4-triazol-1-yl]-N-(propan-2-yl)acetamide] | 31 | –
11 | COc1cc(-c2nc(-c3ccc(CCN4C5CCC4COC5)cn3)nn2CC(=O)NC(C)C)ccc1F [Example B-06, 2-[5-(4-fluoro-3-methoxyphenyl)-3-{5-[2-(3-oxa-8-azabicyclo[3.2.1]oct-8-yl)ethyl]pyridin-2-yl}-1H-1,2,4-triazol-1-yl]-N-(propan-2-yl)acetamide] | 3.3 | –

Other lines, results leading:

Row | IC50 (Human V1b receptor [1]) [nM] | IC50 (Human V1b receptor [2]) [nM] | SMILES
12 | 15 | 21 | CC(C)NC(=O)Cc1nn(-c2ccc(CCN3CCOCC3)cc2)c(=O)n1-c1cccc(Cl)c1 [Example D-01, 2-[4-(3-chlorophenyl)-1-{4-[2-(morpholin-4-yl)ethyl]phenyl}-5-oxo-4,5-dihydro-1H-1,2,4-triazol-3-yl]-N-(propan-2-yl)acetamide]
13 | 3.5 | 13 | CC(C)(C)NC(=O)Cc1nn(-c2ccc(CCN3CCOCC3)cc2)c(=O)n1-c1cccc(Cl)c1 [Example D-13, N-tert-butyl-2-[4-(3-chlorophenyl)-1-{4-[2-(morpholin-4-yl)ethyl]phenyl}-5-oxo-4,5-dihydro-1H-1,2,4-triazol-3-yl]acetamide]
14 | 100 to 1000 | – | CC(C)NC(=O)Cc1nn(-c2ccc(CCN3CC=CCC3)cc2)c(=O)n1-c1cccc(Cl)c1 [Example D-47, 2-[4-(3-chlorophenyl)-1-{4-[2-(3,6-dihydropyridin-1(2H)-yl)ethyl]phenyl}-5-oxo-4,5-dihydro-1H-1,2,4-triazol-3-yl]-N-(propan-2-yl)acetamide]
15 | 100 to 1000 | – | CC1CCN(CCc2ccc(-n3nc(CC(=O)NC(C)C)n(-c4cccc(Cl)c4)c3=O)cc2)CC1 [Example D-49, 2-[4-(3-chlorophenyl)-1-{4-[2-(4-methylpiperidin-1-yl)ethyl]phenyl}-5-oxo-4-,5-dihydro-1H-1,2,4-triazol-3-yl]-N-(propan-2-yl)acetamide]
